Values quoted from earlier work in US11759504B2, “PTH compounds with low peak-to-trough ratios” (Ascendis Pharma Bone Diseases A/S, priority 2016, dated 2023).
Read-outs that look alike come from different tables or passages of the source.

Assays:
[1] = not given; remark: listed apart in the source

Natpara: PTH(1-84), approved 2015 for once-daily subcutaneous injection as adjunct to vitamin D and calcium in hypoparathyroidism
osteosarcoma rate (rat, in vivo): dose dependent increase in osteosarcoma rate | patients who developed hypercalcemia at one or more measurements during a 24-hour period ([1]; human, in vivo): 71% | urinary calcium excretion ([1]; over the 24-hour period after injection): did not change | treated participants who achieved normal blood calcium levels on reduced doses of calcium supplements and active forms of vitamin D ([1]; pivotal trial, once-daily sc): 42%

CC[C@H](C)[C@H](NC(=O)[C@H](CCC(=O)O)NC(=O)[C@H](CO)NC(=O)[C@@H](NC(=O)[C@@H](N)CO)C(C)C)C(=O)N[C@@H](CCC(N)=O)C(=O)N[C@@H](CC(C)C)C(=O)N[C@@H](CCSC)C(=O)N[C@@H](Cc1cnc[nH]1)C(=O)N[C@@H](CC(N)=O)C(=O)N[C@@H](CC(C)C)C(=O)NCC(=O)N[C@@H](CCCCN)C(=O)N[C@@H](Cc1cnc[nH]1)C(=O)N[C@@H](CC(C)C)C(=O)N[C@@H](CC(N)=O)C(=O)N[C@@H](CO)C(=O)N[C@@H](CCSC)C(=O)N[C@@H](CCC(=O)O)C(=O)N[C@@H](CCCN=C(N)N)C(=O)N[C@H](C(=O)N[C@@H](CCC(=O)O)C(=O)N[C@@H](Cc1c[nH]c2ccccc12)C(=O)N[C@@H](CC(C)C)C(=O)N[C@@H](CCCN=C(N)N)C(=O)N[C@@H](CCCCN)C(=O)N[C@@H](CCCCN)C(=O)N[C@@H](CC(C)C)C(=O)N[C@@H](CCC(N)=O)C(=O)N[C@@H](CC(=O)O)C(=O)N[C@H](C(=O)N[C@@H](Cc1cnc[nH]1)C(=O)N[C@@H](CC(N)=O)C(=O)N[C@@H](Cc1ccccc1)C(=O)O)C(C)C)C(C)C [Forteo]
osteosarcoma rate (rats, daily injections): dose dependent increase in osteosarcoma rate
